Data: paper PMC5869712 (Scientific Reports, 2018)
Where two headings read alike, the source gives them in different places.

Key:
IKKε = target: T1, IKKε (Homo sapiens, UniProt Q14164); assay: Eurofins Kinase Profiler panel; assay type: biochemical; conditions: read-out: % inhibition (1μM), DMSO control=100%, lower=stronger
T1 construct: purchased Eurofins KinaseProfiler (Eurofins Pharma Discovery Services UK, Dundee); JAK3 also ChemPartner

[1] = tested on: Th1, Th17 and Treg cells of CIA mice; assay: Flow cytometry analysis of Th1, Th17 and Treg in CIA mice; assay type: in vivo, mouse; conditions: 100 mg/kg
Protocol: On day 32 after the indicated treatments, mice were sacrificed to obtain cells from the spleen. Then, the cells were incubated with the corresponding antibodies to detect Th1, Th17 cells and Treg cells. CD4^+ IFN-γ^+ represents Th1 cells, CD4^+ IL-17^+ represents Th17 cells in […]. CD4^+ Foxp3^+ represents Treg cells. The analyses of cells were performed as described above.

[2] = tested on: panel of 81 representative kinases; conditions: 1 μM
BTK = target: T2, BTK (Homo sapiens, UniProt Q06187); assay: Cys-containing kinase family panel (EurofinsCerep); assay type: biochemical
T2 construct: EurofinsCerep (contract assay service)
T2 sequence (Q06187 whole entry): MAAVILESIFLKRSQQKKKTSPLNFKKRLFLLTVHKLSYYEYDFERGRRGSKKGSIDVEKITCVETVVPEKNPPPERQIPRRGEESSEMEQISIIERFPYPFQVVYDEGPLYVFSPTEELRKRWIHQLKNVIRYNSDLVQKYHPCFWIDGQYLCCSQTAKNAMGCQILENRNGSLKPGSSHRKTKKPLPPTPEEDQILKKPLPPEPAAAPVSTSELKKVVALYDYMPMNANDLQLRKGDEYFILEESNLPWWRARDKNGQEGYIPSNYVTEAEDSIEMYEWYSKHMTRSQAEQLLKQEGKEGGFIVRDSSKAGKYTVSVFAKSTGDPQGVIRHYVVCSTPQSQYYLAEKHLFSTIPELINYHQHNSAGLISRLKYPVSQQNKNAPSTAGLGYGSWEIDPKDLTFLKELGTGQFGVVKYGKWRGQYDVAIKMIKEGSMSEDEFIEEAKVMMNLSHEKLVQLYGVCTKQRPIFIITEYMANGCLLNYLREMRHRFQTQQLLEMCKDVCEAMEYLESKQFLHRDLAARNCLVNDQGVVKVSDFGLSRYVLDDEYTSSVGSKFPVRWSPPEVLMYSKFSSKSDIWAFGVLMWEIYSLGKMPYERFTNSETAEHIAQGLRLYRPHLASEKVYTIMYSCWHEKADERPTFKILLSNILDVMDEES

Abl = target: T3, Abl (Homo sapiens, UniProt P00519); assay: Eurofins Kinase Profiler panel; assay type: biochemical; conditions: read-out: % inhibition (1μM), DMSO control=100%, lower=stronger
T3 construct: purchased Eurofins KinaseProfiler (Eurofins Pharma Discovery Services UK, Dundee); JAK3 also ChemPartner
T3 sequence (P00519 whole entry): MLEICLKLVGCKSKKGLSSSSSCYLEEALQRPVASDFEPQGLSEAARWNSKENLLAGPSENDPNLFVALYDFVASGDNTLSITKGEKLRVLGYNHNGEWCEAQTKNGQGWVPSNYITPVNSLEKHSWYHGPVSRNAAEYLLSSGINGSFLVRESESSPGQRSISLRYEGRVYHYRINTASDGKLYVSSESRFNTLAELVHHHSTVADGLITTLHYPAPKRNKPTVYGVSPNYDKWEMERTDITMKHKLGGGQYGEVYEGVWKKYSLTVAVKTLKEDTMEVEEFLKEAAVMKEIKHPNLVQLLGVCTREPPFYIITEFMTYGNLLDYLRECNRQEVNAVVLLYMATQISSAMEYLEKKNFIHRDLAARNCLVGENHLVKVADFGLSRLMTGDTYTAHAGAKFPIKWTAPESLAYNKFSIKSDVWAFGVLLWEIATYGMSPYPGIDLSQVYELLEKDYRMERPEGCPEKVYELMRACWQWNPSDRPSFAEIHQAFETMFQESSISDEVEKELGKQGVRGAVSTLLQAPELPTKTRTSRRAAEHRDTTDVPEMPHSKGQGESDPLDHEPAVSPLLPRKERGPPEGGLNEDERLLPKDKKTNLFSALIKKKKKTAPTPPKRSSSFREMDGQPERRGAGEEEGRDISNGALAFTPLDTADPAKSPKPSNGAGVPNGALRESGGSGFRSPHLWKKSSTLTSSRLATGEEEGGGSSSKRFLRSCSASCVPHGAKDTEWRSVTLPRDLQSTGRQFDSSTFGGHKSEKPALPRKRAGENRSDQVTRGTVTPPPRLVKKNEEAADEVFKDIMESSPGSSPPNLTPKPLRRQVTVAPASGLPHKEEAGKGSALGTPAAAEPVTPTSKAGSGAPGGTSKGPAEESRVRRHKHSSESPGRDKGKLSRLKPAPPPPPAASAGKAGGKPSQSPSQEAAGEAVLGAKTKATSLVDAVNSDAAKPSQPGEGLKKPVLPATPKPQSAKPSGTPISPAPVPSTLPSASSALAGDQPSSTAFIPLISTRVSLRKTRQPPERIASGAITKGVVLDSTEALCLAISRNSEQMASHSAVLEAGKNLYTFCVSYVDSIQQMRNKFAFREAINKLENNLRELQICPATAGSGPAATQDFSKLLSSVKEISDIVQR

[3] = Pharmacokinetics in Sprague Dawley rats; assay type: in vivo
[4] = tested on: serum TNF-α, IL-1β and IL-6 in CIA mice; assay: Serum cytokines of CIA mice by ELISA; assay type: in vivo, mouse
MKK7β = target: T4, MKK7β (Homo sapiens, UniProt O14733); assay: Eurofins Kinase Profiler panel; assay type: biochemical
T4 construct: Eurofins Pharma Discovery Services UK Limited (Kinase Profiler service)
T4 sequence (O14733 whole entry): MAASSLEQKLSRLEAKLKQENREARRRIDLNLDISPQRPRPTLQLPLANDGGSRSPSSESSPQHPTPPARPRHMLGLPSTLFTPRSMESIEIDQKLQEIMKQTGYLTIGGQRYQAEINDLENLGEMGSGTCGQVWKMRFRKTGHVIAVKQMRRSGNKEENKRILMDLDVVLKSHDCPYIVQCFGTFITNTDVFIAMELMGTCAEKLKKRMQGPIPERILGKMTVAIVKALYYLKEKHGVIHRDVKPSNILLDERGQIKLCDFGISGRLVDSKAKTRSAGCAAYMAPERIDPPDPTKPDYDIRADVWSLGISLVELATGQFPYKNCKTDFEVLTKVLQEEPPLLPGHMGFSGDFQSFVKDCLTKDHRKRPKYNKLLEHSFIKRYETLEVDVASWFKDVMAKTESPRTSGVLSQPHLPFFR

JAK3 = target: T5, JAK3 (Homo sapiens, UniProt P52333); assay: Eurofins Kinase Profiler panel; assay type: biochemical; conditions: read-out: % inhibition (1μM), DMSO control=100%, lower=stronger, text: residual kinase activity
T5 construct: ChemPartner (contract assay service)
T5 sequence (P52333 1-1124): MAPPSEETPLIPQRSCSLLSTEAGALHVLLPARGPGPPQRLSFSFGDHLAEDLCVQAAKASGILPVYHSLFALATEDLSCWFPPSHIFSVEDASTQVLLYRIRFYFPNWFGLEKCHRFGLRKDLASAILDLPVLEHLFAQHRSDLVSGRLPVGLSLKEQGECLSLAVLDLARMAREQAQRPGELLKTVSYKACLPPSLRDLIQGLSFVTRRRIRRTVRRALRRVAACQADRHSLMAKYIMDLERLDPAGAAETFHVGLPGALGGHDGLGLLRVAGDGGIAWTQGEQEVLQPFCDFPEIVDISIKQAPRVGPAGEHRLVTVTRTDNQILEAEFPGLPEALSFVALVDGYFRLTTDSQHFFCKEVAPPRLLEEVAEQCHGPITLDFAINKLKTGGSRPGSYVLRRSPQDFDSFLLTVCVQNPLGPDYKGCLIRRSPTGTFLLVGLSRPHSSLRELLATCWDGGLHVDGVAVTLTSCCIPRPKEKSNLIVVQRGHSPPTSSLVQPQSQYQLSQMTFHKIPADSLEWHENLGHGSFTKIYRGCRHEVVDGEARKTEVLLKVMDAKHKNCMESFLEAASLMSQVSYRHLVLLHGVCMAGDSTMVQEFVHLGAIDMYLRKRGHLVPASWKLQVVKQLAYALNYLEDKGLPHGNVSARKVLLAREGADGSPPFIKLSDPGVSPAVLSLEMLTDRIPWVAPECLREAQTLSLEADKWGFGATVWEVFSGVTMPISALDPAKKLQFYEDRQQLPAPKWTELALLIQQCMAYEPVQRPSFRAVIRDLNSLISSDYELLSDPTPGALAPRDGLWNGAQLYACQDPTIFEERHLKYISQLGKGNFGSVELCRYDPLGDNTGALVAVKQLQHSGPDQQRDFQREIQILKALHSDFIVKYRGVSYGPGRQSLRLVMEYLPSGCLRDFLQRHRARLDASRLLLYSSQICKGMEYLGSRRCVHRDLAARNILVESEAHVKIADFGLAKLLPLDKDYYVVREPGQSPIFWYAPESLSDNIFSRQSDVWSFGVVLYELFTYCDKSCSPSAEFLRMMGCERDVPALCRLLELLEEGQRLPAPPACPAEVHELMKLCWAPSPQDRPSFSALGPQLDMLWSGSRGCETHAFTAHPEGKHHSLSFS

IKKβ = target: T6, IKKβ (Homo sapiens, UniProt O14920); assay: Eurofins Kinase Profiler panel; assay type: biochemical; conditions: read-out: % inhibition (1μM), DMSO control=100%, lower=stronger
T6 construct: purchased Eurofins KinaseProfiler (Eurofins Pharma Discovery Services UK, Dundee); JAK3 also ChemPartner

MKK6 = target: T7, MKK6 (Homo sapiens, UniProt P52564); assay: Eurofins Kinase Profiler panel; assay type: biochemical; conditions: read-out: % inhibition (1μM), DMSO control=100%, lower=stronger
T7 construct: Eurofins Pharma Discovery Services UK Limited (Kinase Profiler service)
T7 sequence (P52564 whole entry): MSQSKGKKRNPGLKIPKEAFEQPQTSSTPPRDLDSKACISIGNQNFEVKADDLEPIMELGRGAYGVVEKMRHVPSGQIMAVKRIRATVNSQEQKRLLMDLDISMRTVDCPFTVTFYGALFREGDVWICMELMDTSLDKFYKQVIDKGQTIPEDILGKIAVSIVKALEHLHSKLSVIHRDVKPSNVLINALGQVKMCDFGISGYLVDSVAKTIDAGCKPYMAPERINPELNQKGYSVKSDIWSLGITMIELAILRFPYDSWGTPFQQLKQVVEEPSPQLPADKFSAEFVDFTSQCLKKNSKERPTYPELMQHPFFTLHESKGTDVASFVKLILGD

IGF-1R = target: T8, IGF-1R (Homo sapiens, UniProt P08069); assay: Eurofins Kinase Profiler panel; assay type: biochemical; conditions: read-out: % inhibition (1μM), DMSO control=100%, lower=stronger
T8 construct: purchased Eurofins KinaseProfiler (Eurofins Pharma Discovery Services UK, Dundee); JAK3 also ChemPartner

Aurora-B = target: T9, Aurora-B (Homo sapiens, UniProt Q96GD4); assay: Eurofins Kinase Profiler panel; assay type: biochemical
T9 construct: Eurofins Pharma Discovery Services UK Limited (Kinase Profiler service)
T9 sequence (Q96GD4 whole entry): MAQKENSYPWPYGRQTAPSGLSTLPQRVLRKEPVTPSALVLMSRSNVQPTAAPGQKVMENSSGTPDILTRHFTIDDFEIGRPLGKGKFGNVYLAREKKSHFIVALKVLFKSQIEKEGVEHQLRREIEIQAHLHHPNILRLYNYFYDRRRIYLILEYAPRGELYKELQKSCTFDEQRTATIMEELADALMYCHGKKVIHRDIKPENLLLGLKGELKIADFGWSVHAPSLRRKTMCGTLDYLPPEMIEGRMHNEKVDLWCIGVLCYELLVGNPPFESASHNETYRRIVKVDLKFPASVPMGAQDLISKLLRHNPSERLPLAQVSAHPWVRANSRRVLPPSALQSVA

[5] = tested on: G-CSF-induced JAK/STAT3 phosphorylation in HEL cells (JAK1/JAK2); assay: STAT3 phosphorylation induced by G-CSF in HEL cells, Western blot; conditions: for IC50: Homo sapiens
Fyn = target: T10, Fyn (Homo sapiens, UniProt P06241); assay: Eurofins Kinase Profiler panel; assay type: biochemical; conditions: read-out: % inhibition (1μM), DMSO control=100%, lower=stronger
T10 construct: purchased Eurofins Pharma Discovery Services UK Limited (Kinase Profiler screening platform)
T10 sequence (P06241 whole entry): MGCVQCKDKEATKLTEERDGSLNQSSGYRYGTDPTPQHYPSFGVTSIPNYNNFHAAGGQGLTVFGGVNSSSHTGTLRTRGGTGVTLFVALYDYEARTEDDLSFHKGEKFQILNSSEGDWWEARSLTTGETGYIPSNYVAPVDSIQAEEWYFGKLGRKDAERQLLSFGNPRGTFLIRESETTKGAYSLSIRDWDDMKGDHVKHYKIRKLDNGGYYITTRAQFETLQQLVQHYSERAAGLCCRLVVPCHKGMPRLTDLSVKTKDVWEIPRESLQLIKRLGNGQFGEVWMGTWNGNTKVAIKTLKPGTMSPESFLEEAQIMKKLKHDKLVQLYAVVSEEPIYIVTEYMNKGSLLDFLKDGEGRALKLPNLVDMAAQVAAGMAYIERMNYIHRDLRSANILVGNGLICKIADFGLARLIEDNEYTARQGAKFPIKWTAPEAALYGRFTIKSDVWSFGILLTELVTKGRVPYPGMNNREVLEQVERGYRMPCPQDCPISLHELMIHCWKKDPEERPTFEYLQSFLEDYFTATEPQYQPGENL

[6] = tested on: GM-CSF-induced STAT5 phosphorylation (JAK2); assay: GM-CSF-induced pSTAT5 in total lymphocytes in hPBMCs, flow cytometry; assay type: cell-based; conditions: Homo sapiens, Lymphocyte, hPBMC total lymphocytes, trigger GM-CSF, readout pSTAT5
IR = target: T11, IR (Homo sapiens, UniProt P06213); assay: Eurofins Kinase Profiler panel; assay type: biochemical; conditions: read-out: % inhibition (1μM), DMSO control=100%, lower=stronger
T11 construct: purchased Eurofins KinaseProfiler (Eurofins Pharma Discovery Services UK, Dundee); JAK3 also ChemPartner
T11 sequence (P06213 28-1382): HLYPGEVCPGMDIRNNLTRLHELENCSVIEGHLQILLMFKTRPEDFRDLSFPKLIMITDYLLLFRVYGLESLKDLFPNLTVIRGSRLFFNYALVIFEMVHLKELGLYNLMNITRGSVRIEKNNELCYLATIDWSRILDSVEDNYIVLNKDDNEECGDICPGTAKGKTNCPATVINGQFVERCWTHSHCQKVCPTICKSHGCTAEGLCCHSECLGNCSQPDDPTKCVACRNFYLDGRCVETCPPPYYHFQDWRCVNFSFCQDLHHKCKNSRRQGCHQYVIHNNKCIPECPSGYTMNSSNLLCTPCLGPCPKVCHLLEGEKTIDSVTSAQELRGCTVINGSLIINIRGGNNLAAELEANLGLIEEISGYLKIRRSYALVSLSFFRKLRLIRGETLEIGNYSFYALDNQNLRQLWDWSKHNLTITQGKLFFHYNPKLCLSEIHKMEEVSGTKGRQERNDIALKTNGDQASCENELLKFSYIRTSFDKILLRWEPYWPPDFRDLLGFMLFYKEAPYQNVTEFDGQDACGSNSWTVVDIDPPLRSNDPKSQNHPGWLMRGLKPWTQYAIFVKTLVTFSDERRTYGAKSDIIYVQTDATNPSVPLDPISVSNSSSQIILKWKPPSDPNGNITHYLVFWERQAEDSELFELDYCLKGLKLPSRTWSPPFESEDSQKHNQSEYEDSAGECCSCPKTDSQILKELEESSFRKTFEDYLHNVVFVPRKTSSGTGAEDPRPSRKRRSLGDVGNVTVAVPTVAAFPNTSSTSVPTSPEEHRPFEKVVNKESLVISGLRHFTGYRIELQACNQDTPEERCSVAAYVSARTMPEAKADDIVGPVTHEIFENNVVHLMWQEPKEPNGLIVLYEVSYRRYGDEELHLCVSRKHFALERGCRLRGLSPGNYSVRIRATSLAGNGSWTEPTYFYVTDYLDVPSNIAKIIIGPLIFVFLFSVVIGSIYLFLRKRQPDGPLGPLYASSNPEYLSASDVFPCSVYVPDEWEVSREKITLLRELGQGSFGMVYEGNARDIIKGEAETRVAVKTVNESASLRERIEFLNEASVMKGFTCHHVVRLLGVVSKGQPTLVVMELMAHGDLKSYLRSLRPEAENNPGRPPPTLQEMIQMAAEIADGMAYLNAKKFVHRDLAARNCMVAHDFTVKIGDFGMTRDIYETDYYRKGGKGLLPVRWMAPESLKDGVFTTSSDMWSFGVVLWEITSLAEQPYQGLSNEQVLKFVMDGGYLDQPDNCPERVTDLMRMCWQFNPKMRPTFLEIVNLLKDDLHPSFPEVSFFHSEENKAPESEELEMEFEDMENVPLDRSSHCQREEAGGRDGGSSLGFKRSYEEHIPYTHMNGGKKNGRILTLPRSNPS

[7] = both sexes, Sprague Dawley, rat, iv 5.0 mg/kg, plasma
[8] = both sexes, Sprague Dawley, rat, plasma, iv 5.0 mg/kg
[9] = both sexes, Sprague Dawley, rat, plasma, po 10 mg/kg
[10] = both sexes, Sprague Dawley, rat, po 10 mg/kg, plasma
[11] = read-out: % inhibition (1μM), 1 µM, DMSO control=100%, lower=stronger

C=CC(=O)N[C@@H]1CCCN(c2ncnc3[nH]ccc23)C1 [RB1]
activity at 1 µM (IKKε): 97% | percentage of Treg cells ([1]; model 0.55%): 1.13% | Th1 cells ([1]; model 1.12%, normal […]): 0.49% | percentage of Th17 cells ([1]; model 2.13%): 0.80% | selectivity score S(1) ([2]; kinases with ctrl% < 1% / kinases tested): 0.012 | selectivity score S(10) ([2]; kinases with ctrl% < 10% / kinases tested): 0.012 | selectivity score S(35) ([2]; kinases with ctrl% < 35% / kinases tested): 0.086 | inhibition at 1 µM (BTK): -0.95% | activity at 1 µM (Abl): 112% | AUC(0-inf) [3, 7]: 933 ng·h/mL | AUC(0-t) [3, 7]: 802 ng·h/mL | Cmax [3, 7]: 1090 ng/mL | Tmax [3, 8]: 0.08 h | clearance [3, 8]: 97.7 mL/min/kg | half-life [3, 8]: 14.6 h | bioavailability ([3]; both sexes, Sprague Dawley, rat, plasma, oral, 10 mg/kg, po 10 mg/kg vs iv 5.0 mg/kg, read-out: F (oral bioavailability)): 72.5% | Tmax [3, 9]: 0.25 h | half-life [3, 9]: 6.9 h | AUC(0-inf) [3, 10]: 1310 ng·h/mL | AUC(0-t) [3, 10]: 1160 ng·h/mL | Cmax [3, 10]: 309 ng/mL | V ([3]; iv 5.0 mg/kg): 98.04 L/kg | CL ([3]; po 10 mg/kg): 144 mL/min/kg | V ([3]; po 10 mg/kg): 77.33 L/kg | F (oral bioavailability) ([3]; po 10 mg/kg vs iv 5.0 mg/kg): 72.5% | serum TNF-α, IL-1β and IL-6 levels [4]: significantly reduced in a dose-dependent manner | IC50 (MKK7β; estimated): > 0.8 µM | activity at 1 µM (MKK7β; [11]): 20% | activity at 1 µM (JAK3): 0.9% | activity at 1 µM (IKKβ): 105% | activity at 1 µM (MKK6): 69% | activity at 1 µM (IGF-1R): 93% | IC50 (Aurora-B; estimated): > 0.8 µM | activity at 1 µM (Aurora-B; [11]): 12% | G-CSF-induced phosphorylation of STAT3 ([5]; HEL cells, RB1 at concentrations over 50 μM): not affected | Selectivity JAK1/JAK3 ([5]; HEL, G-CSF, pSTAT3): > 1000 | Selectivity JAK2/JAK3 ([5]; HEL, G-CSF, pSTAT3): > 1000 | IC50 ([5]; HEL, read-out: IC50 (nM) JAK1): > 50000 nM | IC50 ([5]; HEL, read-out: IC50 (nM) JAK2): > 50000 nM | activity at 1 µM (Fyn): 97% | IC50 [6]: > 10 µM | activity at 1 µM (IR): 114%
